Assay results reported in US12502372B2, “(9beta-H)-pimarane mother nucleus diterpenoid compound with anti-colon cancer activity and derivative thereof, and preparation method thereof” (NANJING UNIVERSITY OF CHINESE MEDICINE, priority 2023, dated 2025).

What was measured:
HT-29 colon cancer cells = test: MTT proliferation inhibition (cell viability) on colon cancer cell line HT-29; type: cell-based; conditions: for IC50: Homo sapiens, HT-29 colon cancer cell line, 24 hours with drug, MTT method, OD 570 nm, read-out: IC50 ± SD, HT-29
Procedure: (§1) Colon cancer cell lines HT-29 and SW620 (cell bank of Chinese Academy of Sciences) were cultured in a DMEM culture solution containing 10% fetal bovine serum (Gibco Company of America) at 37° C. under 5% CO2. During subculturing, a dish of tumor cells was taken out first, the culture solution was removed, and 3 mL of PBS was added to wash the cells twice; 1 mL of trypsin was added for digestion, 1 mL of culture solution was added after 2 minutes to stop the digestion, and the mixture was centrifuged at 1000 r/min and room temperature for 5 minutes; and a supernatant was removed, 1 mL of DMEM culture medium containing 10% fetal bovine serum was added, and the mixture was resuspended to obtain a cell suspension.
(§2) Different volumes of DMEM culture media were added to dilute the compounds into different concentrations. Meanwhile, a DMEM culture medium containing 0.1% DMSO was used as a negative control.
(§3) Tumor cells were suspended in a culture medium, inoculated into a 96-well plate (100 μL/well) by a cell density of 6×10^3, and cultured at 37° C. under 5% CO2 for 24 hours. In a logarithmic growth period of the tumor cell lines, different concentrations of compounds were added to culture the cells at 37° C. under 5% CO2 for 24 hours.
(§4) After 24 hours of interaction between the drugs and the tumor cells, 20 μL of MTT solution (5 mg/mL) was added into each well to incubate the cells in a sterile incubator for 3 hours. A supernatant was removed completely, and 150 μL of DMSO was added into each well to react on a shaker for 30 minutes, so as to dissolve bluish violet formazan crystals. An OD value was determined at a wavelength of 570 nm with a microplate reader. IC50 (median inhibitory concentration) values of the compounds were calculated by GraphPad Prism 8 software, and 5-FU was used as a positive control.

[1] = system: colon cancer cell line SW620; test: MTT proliferation inhibition (cell viability) on colon cancer cell line SW620; type: cell-based; conditions: for IC50: Homo sapiens, SW-620, SW620 colon cancer cell line, 24 hours with drug, MTT method, OD 570 nm, read-out: IC50 ± SD, SW620
Procedure: as §1, §2, §3, §4

Structure (SMILES) | IC50 (HT-29 colon cancer cells) [µM] | IC50 [1] [µM] | inhibiting effect on HT-29 relative to positive drug 5-FU (HT-29 colon cancer cells; HT-29, compared with 5-FU) | anti-proliferation effect on HT-29 (in words) (HT-29 colon cancer cells; HT-29, stated stronger than positive drug 5-FU) | anti-proliferation effect on SW620 (in words) ([1]; SW620, stated stronger than positive drug 5-FU)
O=c1[nH]cc(F)c(=O)[nH]1 [Compound 5-FU, 5-fluorouracil, reference compound] | 9.18 ± 1.61 | 14.2 ± 1.43 | – | – | –
COC(=O)CC[C@]12CO[C@H](C[C@H]3c4occc4C(=O)C[C@H]31)[C@H]2[C@@H](C)C(=O)O [Compound 2, secoicacinlivitholide G] | 3.12 ± 1.63 | 9.92 ± 1.68 | about three times that of the positive drug 5-FU | remarkable anti-proliferation effects | remarkable anti-proliferation effects
C[C@@H](C(=O)O)[C@@H]1[C@H]2C[C@H]3c4occc4C(=O)C[C@H]3[C@]1(CCC(=O)O)CO2 [Compound 1, secoicacinlivitholide F] | > 20 | – | – | – | –
